One data set addresses T1, GSK-3β (AA 1-420) (Homo sapiens, UniProt P49841).
T1 construct: GSK-3β (AA 1-420)
Kind of data set: Ki determination for the inhibition of GSK-3 (coupled enzyme system). Type of data set: biochemical. The conditions noted are these: 20 μM ATP, 300 μM peptide, 20 nM GSK-3β, 30° C. In a few lines:
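Pyruvate kinase/lactate dehydrogenase-coupled NADH assay with 20 nM GSK-3β (AA 1-420), 20 μM ATP, 300 μM phosphopeptide HSSPHQS(PO3H2)EDEEE in HEPES pH 7.5, 1.5% DMSO, 30 °C. Compound (12 points, 0.002–30 μM) preincubated 10 min before ATP start; Ki derived from 10-min rates versus inhibitor concentration.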

A further data set has as its target T2, Aurora-2 (Homo sapiens, UniProt O14965).
T2 sequence (O14965 1-403): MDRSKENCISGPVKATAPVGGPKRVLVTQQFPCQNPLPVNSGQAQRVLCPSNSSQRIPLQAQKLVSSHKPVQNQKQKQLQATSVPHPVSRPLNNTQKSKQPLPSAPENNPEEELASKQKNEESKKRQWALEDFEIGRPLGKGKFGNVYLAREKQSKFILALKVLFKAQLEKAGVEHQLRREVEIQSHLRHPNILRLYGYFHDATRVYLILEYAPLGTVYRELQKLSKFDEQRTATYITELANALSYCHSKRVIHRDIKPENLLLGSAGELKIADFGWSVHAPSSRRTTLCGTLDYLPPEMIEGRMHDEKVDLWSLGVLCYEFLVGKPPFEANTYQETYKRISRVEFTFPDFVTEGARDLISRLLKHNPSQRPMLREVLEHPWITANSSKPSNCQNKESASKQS
Kind of data set: Ki determination for the inhibition of Aurora-2 (coupled enzyme assay). Type of data set: biochemical. The conditions noted are these: 70 nM Aurora-2, peptide LRRASLG, 30° C. The protocol: Compounds were screened in the following manner for their ability to inhibit Aurora-2 using a standard coupled enzyme assay (Fox et al (1998) Protein Sci 7, 2249).
To an assay stock buffer solution containing 0.1M HEPES 7.5, 10 mM MgCl2, 1 mM DTT, 25 mM NaCl, 2.5 mM phosphoenolpyruvate, […], 30 mg/ml pyruvate kinase, 10 mg/ml lactate dehydrogenase, […], and 800 μM peptide (LRRASLG, American Peptide, Sunnyvale, Calif.) was added a DMSO solution of a compound of the present invention to a final concentration of 30 μM. The resulting mixture was incubated at 30° C. for 10 min. The reaction was initiated by the addition of 10 μL of Aurora-2 stock solution to give a final concentration of 70 nM in the assay. The rates of reaction were obtained by monitoring absorbance at 340 nm over a 5 minute read time at 30° C. using a BioRad Ultramark plate reader (Hercules, Calif.). The Ki values were determined from the rate data as a function of inhibitor concentration.

T1 sequence (P49841 whole entry, the tested form may be a part): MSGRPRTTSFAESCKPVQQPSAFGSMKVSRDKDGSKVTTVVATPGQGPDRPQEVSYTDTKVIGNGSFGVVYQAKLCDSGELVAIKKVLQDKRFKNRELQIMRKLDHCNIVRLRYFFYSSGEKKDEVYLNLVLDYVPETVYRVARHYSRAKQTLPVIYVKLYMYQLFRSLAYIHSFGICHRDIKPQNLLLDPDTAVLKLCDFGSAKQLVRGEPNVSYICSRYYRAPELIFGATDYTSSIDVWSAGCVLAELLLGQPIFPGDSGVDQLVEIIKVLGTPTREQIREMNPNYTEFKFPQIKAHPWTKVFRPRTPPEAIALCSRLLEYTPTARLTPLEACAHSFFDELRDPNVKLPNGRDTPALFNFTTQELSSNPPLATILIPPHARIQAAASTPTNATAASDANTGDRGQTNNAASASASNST

For the compound `Cc1nc(-c2ccccc2C(F)(F)F)nc(Nc2n[nH]c3ccccc23)c1C` [II-24, [5,6-Dimethyl-2-(2-trifluoromethyl-phenyl)-pyrimidin-4-yl]-(1H-indazol-3-yl)-amine], the melting point was 183 to 186 °C. The compound also had a Ki at GSK-3β (AA 1-420) of less than 100 nM.
`Cc1nc(-c2ccccc2C(F)(F)F)nc(Nc2n[nH]c3ccc(F)cc23)c1C` [II-25, [5,6-Dimethyl-2-(2-trifluoromethyl-phenyl)-pyrimidin-4-yl]-(5-fluoro-1H-indazol-3-yl)-amine] had a melting point of 160 to 163 °C. Moreover, the Ki at GSK-3β (AA 1-420) was less than 100 nM.
For `Nc1ccc2[nH]nc(Nc3nc(-c4ccccc4C(F)(F)F)nc4ccccc34)c2c1` [II-73, (5-Amino-1H-indazol-3-yl)-[2-(2-trifluoromethyl-phenyl)-quinazolin-4-yl]-amine] the same measures were 221 to 223 °C and less than 100 nM.
In turn, `Cc1cc(Nc2nc(-c3cc(Cl)cc(Cl)c3)nc3ccccc23)[nH]n1` [III-36, [2-(3,5-Dichlorophenyl)-quinazolin-4-yl]-(5-methyl-2H-pyrazol-3-yl)-amine] showed a melting point of 228 °C.
With `Cc1cc(Nc2nc(-c3cccc(C(F)(F)F)c3)nc3ccccc23)[nH]n1` [III-53, (5-Methyl-2H-pyrazol-3-yl)-[2-(3-trifluoromethylphenyl)-quinazolin-4-yl]-amine], the Ki at GSK-3β (AA 1-420) and at Aurora-2 was less than 100 nM each time.
For the compound `Cc1cc(Nc2nc(-c3cccc(C#N)c3)nc3ccccc23)[nH]n1` [III-54, [2-(3-Cyanophenyl)-quinazolin-4-yl]-(5-methyl-2H-pyrazol-3-yl)-amine], the Ki on GSK-3β (AA 1-420) and at Aurora-2 was less than 100 nM each time.
As for `Cc1cc(Nc2nc(-c3cccc(C(C)C)c3)nc3ccccc23)[nH]n1` [III-55, [2-(3-Isopropylphenyl)-quinazolin-4-yl]-(5-methyl-2H-pyrazol-3-yl)-amine], the inhibitory constant (Ki) on GSK-3β (AA 1-420) and at Aurora-2 was less than 100 nM in each case.
Regarding `Cc1cc(Nc2nc(-c3cccnc3)nc3ccccc23)[nH]n1` [III-56, (5-Methyl-2H-pyrazol-3-yl)-(2-pyridin-3-yl-quinazolin-4-yl)-amine], the inhibitory constant (Ki) on GSK-3β (AA 1-420) and on Aurora-2 was less than 100 nM throughout.
As to `CC(=O)c1cccc(-c2nc(Nc3cc(C)n[nH]3)c3ccccc3n2)c1` [III-57, [2-(3-Acetylphenyl)-quinazolin-4-yl]-(5-methyl-2H-pyrazol-3-yl)-amine], the Ki on GSK-3β (AA 1-420) and on Aurora-2 was less than 100 nM throughout.
Turning to `Cc1cc(Nc2nc(-c3cc(C(F)(F)F)cc(C(F)(F)F)c3)nc3ccccc23)[nH]n1` [III-58, [2-(3,5-Ditrifluoromethylphenyl)-quinazolin-4-yl]-(5-methyl-2H-pyrazol-3-yl)-amine], the values for the inhibition constant Ki at GSK-3β (AA 1-420) and at Aurora-2 were less than 100 nM and 100 to 1000 nM, respectively.
In the case of `Cc1cc(Nc2nc(-c3cccc(CO)c3)nc3ccccc23)[nH]n1` [III-59, [2-(3-Hydroxymethylphenyl)-quinazolin-4-yl]-(5-methyl-2H-pyrazol-3-yl)-amine], the inhibition constant (Ki) on GSK-3β (AA 1-420) and on Aurora-2 was less than 100 nM in each case.
For `CC(C)(C)c1cc(Nc2nc(-c3ccncc3)nc3ccccc23)[nH]n1` [III-69, (5-tert-Butyl-2H-pyrazol-3-yl)-(2-pyridin-4-yl-quinazolin-4-yl)-amine], the melting point was greater than 300 °C.
Same read-out and setting: in the case of `O=C(O)c1cc(Nc2nc(-c3ccccc3)nc3ccccc23)[nH]n1` [III-72, (5-Carboxy-2H-pyrazol-3-yl)-(2-phenyl-quinazolin-4-yl)-amine] it was 289 to 291 °C (dec.).
`C=CCNC(=O)c1cc(Nc2nc(-c3ccccc3)nc3ccccc23)[nH]n1` [III-82, (5-Allylcarbamoyl-2H-pyrazol-3-yl)-(2-phenyl-quinazolin-4-yl)-amine]: the inhibition constant Ki on GSK-3β (AA 1-420) lay in the range of 100 to 1000 nM; at Aurora-2, 1000 to 20000 nM.
`Cc1cc(Nc2nc(N3CCOCC3)nc3ccccc23)[nH]n1` [III-104, (5-Methyl-2H-pyrazol-3-yl)-(2-morpholin-4-yl-quinazolin-4-yl)-amine] showed a melting point of 223 to 224 °C.
As for `OCc1cc(Nc2nc(N3CCCCC3)nc3ccccc23)[nH]n1` [III-124, (5-Hydroxymethyl-2H-pyrazol-3-yl)-[2-(piperidin-1-yl)-quinazolin-4-yl]-amine], the Ki on GSK-3β (AA 1-420) and at Aurora-2 was 100 to 1000 nM in each case.
As for `Fc1cc(F)c2n[nH]c(Nc3nc(-c4ccccc4)nc4c3CCCC4)c2c1` [III-127, (5,7-Difluoro-1H-indazol-3-yl)-(2-phenyl-5,6,7,8-tetrahydroquinazolin-4-yl)-amine], the Ki is less than 100 nM on GSK-3β (AA 1-420) and 1000 to 20000 nM on Aurora-2.
For `Fc1cccc2c(Nc3nc(-c4ccccc4)nc4ccccc34)[nH]nc12` [III-129, (7-Fluoro-1H-indazol-3-yl)-(2-phenyl-quinazolin-4-yl)-amine] the same measures were 100 to 1000 nM and 1000 to 20000 nM.
With `Fc1ccc2n[nH]c(Nc3nc(-c4ccccc4)nc4ccccc34)c2c1` [III-130, (5-Fluoro-1H-indazol-3-yl)-(2-phenyl-quinazolin-4-yl)-amine], the Ki was less than 100 nM on GSK-3β (AA 1-420) and 100 to 1000 nM at Aurora-2.
On to `FC(F)(F)c1cccc(-c2nc(Nc3[nH]nc4ccccc34)c3ccccc3n2)c1` [III-132, (1H-Indazol-3-yl)-[2-(3-trifluoromethyl-phenyl)-quinazolin-4-yl]-amine], for which the inhibitory constant (Ki) on GSK-3β (AA 1-420) lay within 100 to 1000 nM; at Aurora-2 it was 1000 to 20000 nM.
For `c1ccc2c(Nc3n[nH]c4ccccc34)nc(-n3ccnc3)nc2c1` [III-141, (2-imidazol-1-yl-quinazolin-4-yl)-(1H-indazol-3-yl)-amine] the same measures were less than 100 nM and 1000 to 20000 nM.
In turn, `Cc1cc(Nc2ccnc(-c3ccccc3)n2)n[nH]1` [IV-1, (5-Methyl-2H-pyrazol-3-yl)-(2-phenyl-pyrimidin-4-yl)-amine] had a melting point of 245 to 246 °C.
As to `CC(=O)Nc1ccc(Sc2cc(Nc3cc(C)[nH]n3)nc(-c3ccccc3)n2)cc1` [IV-3, [6-(4-Acetamidophenylsulfanyl)-2-phenyl-pyrimidin-4-yl]-(5-methyl-2H-pyrazol-3-yl)-amine], the melting point fell in the range of 235 to 236 °C.
With `Cc1cc(Nc2ccnc(N3CCC(C)CC3)n2)n[nH]1` [IV-4, [2-(4-Methylpiperidin-1-yl)-pyrimidin-4-yl]-(5-methyl-2H-pyrazol-3-yl)-amine], the melting point is 215 to 216 °C.
The same measure, in the same setting: then `Cc1cc(Nc2nc(N3CCC(C)CC3)ncc2[N+](=O)[O-])[nH]n1` [IV-5, [2-(4-Methylpiperidin-1-yl)-5-nitropyrimidin-4-yl]-(5-methyl-2H-pyrazol-3-yl)-amine], with 185 to 187 °C; and `Cc1cc(Nc2nc(N3CCC(C)CC3)nc(C)c2N)n[nH]1` [IV-7, [5-Amino-6-methyl-2-(4-methylpiperidin-1-yl)-pyrimidin-4-yl]-(5-methyl-2H-pyrazol-3-yl)-amine], with 172 to 175 °C; and `Cc1cc(Nc2nc(-c3ccccc3)nc3cnccc23)n[nH]1` [IV-30, (5-Methyl-2H-pyrazol-3-yl)-(2-phenyl-pyrido[3,4-d]pyrimidin-4-yl)-amine], with 225 °C.
On the same count and under the same terms, in the case of `Cc1cc(Nc2nc(-c3ccccc3)nc3ncccc23)n[nH]1` [IV-31, (5-Methyl-2H-pyrazol-3-yl)-(2-phenyl-pyrido[2,3-d]pyrimidin-4-yl)-amine] it was 234 °C.
The same measure, in the same setting: in the case of `c1ccc(-c2nc(Nc3cc(C4CC4)[nH]n3)c3ccncc3n2)cc1` [IV-32, (5-Cyclopropyl-2H-pyrazol-3-yl)-(2-phenyl-pyrido[3,4-d]pyrimidin-4-yl)-amine] it was 232 to 233 °C.
For `CC1CCN(c2nc(Nc3cc(C4CC4)n[nH]3)c3nccc-3[nH]2)CC1` [IV-34, (5-Cyclopropyl-2H-pyrazol-3-yl)-[2-(4-methylpiperidin-1-yl)-pyrrolo[3,2-d]pyrimidin-4-yl]-amine], the inhibition constant (Ki) at GSK-3β (AA 1-420) and at Aurora-2 was less than 100 nM each time.
Regarding `FC(F)(F)c1ccccc1-c1nc(Nc2nc[nH]n2)c2ccccc2n1` [IX-47, (2H-[1,2,4]-Triazol-3-yl)-[2-(2-trifluoromethylphenyl)-quinazolin-4-yl]-amine], the Ki at GSK-3β (AA 1-420) is less than 100 nM; at Aurora-2 it was 1000 to 20000 nM.
In the same order, the values of `FC(F)(F)c1ccccc1-c1cc(Nc2nc[nH]n2)c2ccccc2n1` [IX-177, (1H-[1,2,4]triazol-3-yl)-[2-(2-trifluoromethyl-phenyl)-quinolin-4-yl]-amine] are 100 to 1000 nM and 1000 to 20000 nM.
